One may read the IC50 as the concentration at which inhibition is half-maximal. Read a high IC50 as weaker potency.

Consider twelve compounds from ChEMBL document CHEMBL1128840, “Synthesis of myo-inositol-1-phosphatase inhibitors in which the phosphate group is replaced by less polar groups” (Bioorg Med Chem Lett, 1995).

The first assay addresses T1, Inositol monophosphatase 1 (Bos taurus, UniProt P20456).
T1 sequence (P20456 whole entry): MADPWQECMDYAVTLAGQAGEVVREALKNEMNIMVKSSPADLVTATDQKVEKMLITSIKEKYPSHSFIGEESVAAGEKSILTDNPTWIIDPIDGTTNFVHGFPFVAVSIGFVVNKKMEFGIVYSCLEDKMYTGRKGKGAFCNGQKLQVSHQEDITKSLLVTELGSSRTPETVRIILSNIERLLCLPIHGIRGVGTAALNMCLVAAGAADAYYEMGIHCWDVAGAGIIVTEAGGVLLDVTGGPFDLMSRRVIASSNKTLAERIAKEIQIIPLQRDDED
Kind of assay: Compound was tested for inhibitory activity against myo-inositol-1-phosphatase; compound was not active at 300 uM.
As for `NC(=O)O[C@@H]1[C@H](O)C[C@@H](O)C[C@H]1OCCCCc1ccccc1O`, the IC50 entry is “Not Active”.

In the next assay the target is T1, Inositol monophosphatase 1. As to the kind of experiment: Inhibitory activity against myo-inositol-1-phosphatase.
As for `NS(=O)(=O)O[C@@H]1[C@H](O)C[C@@H](O)C[C@H]1OCCCCc1ccccc1O`, the IC50 is over 300 µM.

As to `NS(=O)(=O)O[C@@H]1[C@H](O)C[C@@H](O)C[C@H]1OCCCCC1CCCCC1=O` (some centres not stated), the midpoint of inhibition, the IC50, lay at 200 µM.

`O=S(=O)(O)O[C@@H]1[C@H](O)C[C@@H](O)C[C@H]1OCCCCc1ccccc1O` showed an IC50 of 90 µM.

Turning to `CC(=O)NS(=O)(=O)O[C@@H]1[C@H](O)C[C@@H](O)C[C@H]1OCCCCc1ccccc1O`, the IC50 is over 300 µM.

For `CC(=O)NS(=O)(=O)O[C@@H]1[C@H](O)C[C@@H](O)C[C@H]1OCCCCC1CCCCC1=O` (some centres not stated), the IC50 is over 300 µM. `CP(C)(=O)O[C@@H]1[C@H](O)C[C@@H](O)C[C@H]1OCCCCc1ccccc1O` had an IC50 of over 300 µM. On the same count and under the same terms, as for `O=C1CCCCC1CCCCO[C@@H]1C[C@H](O)C[C@@H](O)[C@H]1OS(=O)(=O)O` (some centres not stated), the figure is 100 µM; as for `O=P(O)(O)O[C@@H]1[C@H](O)C[C@@H](O)C[C@H]1OCCCc1ccccc1`, 0.8 µM; as for `O=P(O)(O)O[C@@H]1[C@H](O)C[C@@H](O)C[C@H]1OCCCCc1ccccc1O`, 0.3 µM.

`CC(C)OP(=O)(O)O[C@@H]1[C@H](O)C[C@@H](O)C[C@H]1OCCCCc1ccccc1O` returned an IC50 of 50 µM.

A further assay deals with T1, Inositol monophosphatase 1. Kind of assay: Compound was tested for inhibitory activity against myo-inositol-1-phosphatase; weak inhibitor.
Consider `O=C(O)CO[C@@H]1[C@H](O)C[C@@H](O)C[C@H]1OCCCCc1ccccc1O`, for which the IC50 was over 300 µM.
